Experimental data: patent US6361788B1, “Synergistic biocide composition” (Thor Chemie GmbH, priority 1997, dated 2002)
Like-named read-outs stand apart in the source and are kept apart here.

Key:
Assay type in all cases: cell-based
Escherichia coli = assay: MIC and synergy of MIT/BIT (1:1) and HCHO in Müller-Hinton broth, 48 h
Procedure: (§1) The synergy index is calculated according to the method of F. C. Kull et al., Applied Microbiology, Vol. 9 (1961), p. 538. Here the synergy index is calculated using the following formula:
(§2) Synergy index SI=Qa/QA+Qb/QB.
The test batches contained a Müller-Hinton broth as a nutrient medium. The cell density was 10^6 cells/mL. The incubation time was 48 b at 25° C. Each sample was incubated on an incubation shaker at 120 rpm.

Pseudomonas aeruginosa [1] = assay: as above
Procedure: as §1, §2
The test batches contained a Müller-Hinton broth as a nutrient medium. The cell density was 10^6 cells/mL. The incubation time was 48 h at 25° C. Each sample was incubated on an incubation shaker at 120 rpm.

Aspergillus niger = assay: MIC and synergy of MIT/BIT (1:1) and OIT in Sabouraud maltose broth, 72 h
Procedure: (§3) In all the examples in which an active substance mixture of MIT and BIT as well as additionally a further active biocidal substance was used, the weight ratio of MIT to BIT was 1:1.
as §1, §2
The synergy of an active substance mixture that contains 2-n-octylisothiazolin-3-one (OIT) in addition to MIT and BIT, against the microorganism Aspergillus niger is shown as in Example 1.
(§4) The test batches contained a Sabouraud maltose broth as a nutrient medium. The spore concentration was 10^6 per mL. The incubation time was 72 h at 25° C. Each sample was incubated on an incubation shaker at 120 rpm.

Penicillium funiculosum = assay: as above; conditions: for growth of the microorganism: MIT/BIT ppm = row head c0; for growth of the microorganism: key: growth of the microorganism took place (symbol '+'); or not (symbol '−')
Procedure: as §3, §1, §2
The synergy of an active substance mixture that contains OIT in addition to MIT and BIT, against the microorganism Penicillium funiculosum is shown as in Example 1.
as §4

Saccharomyces cerevisiae = assay: as above
Procedure: as §3, §1, §2
The synergy of an active substance mixture that contains OIT in addition to MIT and BIT, against the microorganism Saccharomyces cerevisiae is shown as in Example 1.
The test batches contained a Sabouraud maltose broth as a nutrient medium. The cell density was 10^6 cells/mL. The incubation time was 72 h at 25° C. Each sample was incubated on an incubation shaker at 120 rpm.

Pseudomonas aeruginosa [2] = assay: MIC and synergy of MIT/BIT (1:1) and OIT in Müller-Hinton broth, 144 h
Procedure: as §3, §1, §2
The synergy of an active substance mixture that contains OIT in addition to MIT and BIT, against the microorganism Pseudomonas aeruginosa is shown as in Example 1.
The test batches contained a Müller-Hinton broth as a nutrient medium. The cell density was 10^6 cells/mL. The incubation time was 144 h at 25° C. Each sample was incubated on an incubation shaker at 120 rpm.

C=O [HCHO, formaldehyde]
Qb/QB (Escherichia coli; 48 h): 1.00
Synergy index Qa/QA + Qb/QB (Escherichia coli; 48 h): 1.00
MIC (Escherichia coli; 48 h, read-out: MIC at HCHO concentration Qb): 300 µg/mL
Total concentration MIT/BIT + HCHO (Escherichia coli; at the MIC, 48 h): 300 ppm
MIC (Escherichia coli; read-out: MIC value): 300 µg/mL
Qb/QB (Pseudomonas aeruginosa [1]): 1.00
Synergy index Qa/QA + Qb/QB (Pseudomonas aeruginosa [1]): 1.00
Total concentration MIT/BIT + HCHO (Pseudomonas aeruginosa [1]; at the MIC): 300 ppm
MIC (Pseudomonas aeruginosa [1]; read-out: MIC at HCHO concentration Qb): 300 µg/mL
MIC (Pseudomonas aeruginosa [1]; read-out: MIC value): 300 µg/mL

CCCCCCCCn1sccc1=O [OIT, 2-n-octylisothiazolin-3-one]
Qb/QB (Aspergillus niger; Aspergillus niger, 72 h): 1.00
Synergy index Qa/QA + Qb/QB (Aspergillus niger; Aspergillus niger, 72 h): 1.00
MIC at OIT concentration Qb (Aspergillus niger; OIT share at the MIC, Aspergillus niger, 72 h): 5 ppm
Total concentration MIT/BIT + OIT (Aspergillus niger; at the MIC, Aspergillus niger, 72 h): 5 ppm
MIC value (Aspergillus niger; used alone, 72 h at 25° C.): 5 ppm
growth of the microorganism (Penicillium funiculosum; OIT 0.25 ppm, 72 h): +
growth of the microorganism (Penicillium funiculosum; OIT 0.5 ppm, 72 h): +
growth of the microorganism (Penicillium funiculosum; OIT 1 ppm, 72 h): +
growth of the microorganism (Penicillium funiculosum; OIT 2.5 ppm, 72 h): +
growth of the microorganism (Penicillium funiculosum; OIT 5 ppm, 72 h): −
MIC at OIT concentration Qb (Penicillium funiculosum; OIT share at the MIC, Penicillium funiculosum, 72 h): 5 ppm
Qb/QB (Penicillium funiculosum; Penicillium funiculosum, 72 h): 1.00
Synergy index Qa/QA + Qb/QB (Penicillium funiculosum; Penicillium funiculosum, 72 h): 1.00
Total concentration MIT/BIT + OIT (Penicillium funiculosum; at the MIC, Penicillium funiculosum, 72 h): 5 ppm
MIC value (Penicillium funiculosum; used alone, 72 h at 25° C.): 5 ppm
MIC at OIT concentration Qb (Saccharomyces cerevisiae; OIT share at the MIC, Saccharomyces cerevisiae, 72 h): 5 ppm
Qb/QB (Saccharomyces cerevisiae; Saccharomyces cerevisiae, 72 h): 1.00
Synergy index Qa/QA + Qb/QB (Saccharomyces cerevisiae; Saccharomyces cerevisiae, 72 h): 1.00
Total concentration MIT/BIT + OIT (Saccharomyces cerevisiae; at the MIC, Saccharomyces cerevisiae, 72 h): 5 ppm
MIC value (Saccharomyces cerevisiae; used alone, 72 h at 25° C.): 5 ppm
MIC at OIT concentration Qb (Pseudomonas aeruginosa [2]; OIT share at the MIC, Pseudomonas aeruginosa, 144 h): 900 ppm
Qb/QB (Pseudomonas aeruginosa [2]; Pseudomonas aeruginosa, 144 h): 1.00
Synergy index Qa/QA + Qb/QB (Pseudomonas aeruginosa [2]; Pseudomonas aeruginosa, 144 h): 1.00
Total concentration MIT/BIT + OIT (Pseudomonas aeruginosa [2]; at the MIC, Pseudomonas aeruginosa, 144 h): 900 ppm
MIC value (Pseudomonas aeruginosa [2]; used alone, 144 h at 25° C.): over 800 ppm
